Target: D(2) dopamine receptor (Mus musculus, UniProt P61168)
Sequence (P61168 whole entry): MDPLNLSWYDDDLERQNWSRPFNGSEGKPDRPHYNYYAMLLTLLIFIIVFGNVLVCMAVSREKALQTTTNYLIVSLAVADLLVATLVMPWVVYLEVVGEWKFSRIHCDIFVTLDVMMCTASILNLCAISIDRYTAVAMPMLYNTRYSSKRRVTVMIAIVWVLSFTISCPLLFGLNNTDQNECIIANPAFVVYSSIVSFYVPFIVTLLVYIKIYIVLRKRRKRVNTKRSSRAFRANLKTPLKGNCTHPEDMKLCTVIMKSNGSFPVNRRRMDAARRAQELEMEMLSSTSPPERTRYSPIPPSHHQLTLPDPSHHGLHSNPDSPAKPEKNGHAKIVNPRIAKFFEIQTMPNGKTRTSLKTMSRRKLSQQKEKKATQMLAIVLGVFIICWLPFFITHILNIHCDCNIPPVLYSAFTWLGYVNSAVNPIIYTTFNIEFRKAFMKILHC

| Ki | SMILES |
| --- | --- |
| 1060 nM | CCN1CCC[C@@H]1CNC(=O)c1cc(S(N)(=O)=O)ccc1OC [Sulpiride-R] |
| 1470 nM | CCN1CCC[C@H]1CNC(=O)c1cc(S(N)(=O)=O)ccc1OC [Sulpiride-S] |

From BindingDB's records for doi:10.1002/(SICI)1098-2396(199702)25:2 (University of Toronto, 1997)
